The values below come from patent US4687843A, “Esterified propoxylated glucose compositions” (Amerchol Corporation, priority 1986, dated 1987).

One series concerns rabbits (dermal). The note with it: rabbit, in vivo.
The next series relates to rabbits (eye). Conditions: rabbit, in vivo.
The conditions of series [1]: in vivo.

With PPG-20 Methyl Glucose Ether Distearate, in the series on rabbits (dermal), the Primary dermal irritant result is recorded as “not a primary dermal irritant” and the Primary dermal irritation result is “Not a primary dermal irritant”. In the series with rabbits (eye), the Draize test score result is listed as “negligible” and the Eye irritation result was “Practically non-irritating”. Also, the “Comedogenic Assay” value in series [1] is on record as “Non-comedogenic”.
